Experimental data from patent US20040029865A1, “Bis-arylsulfones” (priority 2002, published 2004).

Tests used:
Type in all cases: physicochemical
[1] = Two-week solid-state stability at stressed conditions (high RH / high temperature), assessed by Powder-XRD; details: for Stability at high Temp (70° C.) / Stability at high RH (88%): two weeks, Powder-XRD; for Stability at high RH (88%): 88% RH; for physical stability at stressed conditions (high temperature and/or high humidity) relative to other salts: comparison with other salts
Experimental: X-ray Diffraction (XRD) Analysis: A Scintag X-2 theta/theta scanning diffractometer (Scintag Inc., Cupertino Calif.) was employed for the XRD data acquisition for this study. […] Major instrumental parameters are set as follows: 45 KV voltage, 40 mA current, divergent slit width of 2 mm, detector scatter slit width of 0.5 mm and receiving slit width of 0.3 mm. Each XRD pattern was scanned over the spectral range of 2-40° two-theta angle with a step scan algorithm with a step size of 0.03° two-theta angle/step. The raw XRD data, exported in ASCII format, is then converted to the binary format with Galactic's Grams software (Galactic Industries Corp., Salem N.H.) for data analysis, storage and output.

[2] = Dynamic moisture sorption gravimetry (DMSG); details: for Δ-Wt (%) DMSG: 0-90% RH: moisture sorption weight change; for moisture absorption (Δ-Wt(%) DMSG) relative to other salts: comparison with other salts
Experimental: Dynamic moisture sorption gravimetry (DMSG): DMSG isotherms were collected on the variable temperature controlled atmospheric microbalance, CAM. Approximately 10 mg samples were used in the balance, samples were run as received. The humidity was set at ambient conditions on the day analysis began. After the first scan with fast scan rate from ambient RH to 0% RH; the DMSG analysis followed with three more scans: 0% RH to 90% RH, 90% RH to 0% RH, 0% RH to 90% RH. The scan rate was 3% RH/step. The mass was measured every two minutes and an equilibrium window of 5 points within 0.001 mg. The RH was changed to the next value (+/−3% RH) when the mass of the sample was stable to within 1.0 μg. The Visual Basic program dmsgscn2.exe was used to control the data collection and export the information to an Excel spreadsheet.

[3] = Conversion of crystal form II to form I upon stirring in aqueous or hot-ethanol
Description: See results in Table 2 below.

| Molecule | Stability at high Temp (70° C.) [1] | Stability at high RH (88%) [1] | Δ-Wt (%) DMSG: 0-90% RH [2] | physical stability at stressed conditions (high temperature and/or high humidity) relative to other salts [1] | moisture absorption (Δ-Wt(%) DMSG) relative to other salts [2] | further results |
| --- | --- | --- | --- | --- | --- | --- |
| CC(=O)Nc1cc(N2CCCNCC2)ccc1S(=O)(=O)c1cccc(F)c1.CS(=O)(=O)O [Example 1, N-{5-(1,4-diazepan-1-yl)-2-[(3-fluorophenyl)sulfonyl]phenyl}acetamide Methanesulfonate] | Stable | Deliquesced | Deliquesced | – | – | – |
| CC(=O)Nc1cc(N2CCCNCC2)ccc1S(=O)(=O)c1cccc(F)c1.Cl [Example 2, N-{5-(1,4-diazepan-1-yl)-2-[(3-fluorophenyl)sulfonyl]phenyl}acetamide Hydrochloride] | Stable | Stable | 0.8% | better physical stability | lower moisture absorption | – |
| CC(=O)Nc1cc(N2CCCNCC2)ccc1S(=O)(=O)c1cccc(F)c1.O=C(O)C(F)(F)F [Example 3, N-{5-(1,4-diazepan-1-yl)-2-[(3-fluorophenyl)sulfonyl]phenyl}acetamide Trifluoroacetate] | Stable | Stable | 0.8% | better physical stability | lower moisture absorption | – |
| CC(=O)Nc1cc(N2CCCNCC2)ccc1S(=O)(=O)c1cccc(F)c1.O=C(O)/C=C\C(=O)O [Example 4, N-{5-(1,4-diazepan-1-yl)-2-[(3-fluorophenyl)sulfonyl]phenyl}acetamide Maleate, Crystal Form I] | Stable | Stable | 0.7% | – | – | thermodynamic preference between crystal forms [3]: thermodynamically favored relative to form II; Stability at high Temp (70° C.) ([1]; listed as form I): excellent physical stability; Stability at high RH (88%) ([1]; listed as form I): excellent physical stability |
| CC(=O)Nc1cc(N2CCCNCC2)ccc1S(=O)(=O)c1cccc(F)c1.O=C(O)/C=C\C(=O)O [Example 5 (Form II), N-{5-(1,4-diazepan-1-yl)-2-[(3-fluorophenyl)sulfonyl]phenyl}acetamide maleate] | – | – | – | – | – | Stability at high Temp (70° C.) ([1]; listed as form II, maleate): excellent physical stability; Stability at high Temp (70° C.) ([1]; maleate): Stable; Stability at high RH (88%) ([1]; listed as form II, maleate): excellent physical stability; Stability at high RH (88%) ([1]; maleate): Stable; Δ-Wt (%) DMSG: 0-90% RH ([2]; maleate): 0.3% |
| CC(=O)Nc1cc(N2CCCNCC2)ccc1S(=O)(=O)c1cccc(F)c1.O=C(O)CC(O)(CC(=O)O)C(=O)O [Example 6, N-{5-(1,4-diazepan-1-yl)-2-[(3-fluorophenyl)sulfonyl]phenyl}acetamide Hemi-citrate] | Stable | Unstable*** | 2.5% | – | – | – |
| CC(=O)Nc1cc(N2CCCNCC2)ccc1S(=O)(=O)c1cccc(F)c1.Cc1ccc(S(=O)(=O)O)cc1 [Example 8, N-{5-(1,4-diazepan-1-yl)-2-[(3-fluorophenyl)sulfonyl]phenyl}acetamide Tosylate] | Stable | Stable | 1.9% | better physical stability | lower moisture absorption | – |
| CC(=O)Nc1cc(N2CCCNCC2)ccc1S(=O)(=O)c1cccc(F)c1.O=C(O)/C=C/C(=O)O [Example 9, N-{5-(1,4-diazepan-1-yl)-2-[(3-fluorophenyl)sulfonyl]phenyl}acetamide Hemi-fumarate] | Stable | Unstable** | 3.0% | – | – | – |
| CC(=O)Nc1cc(N2CCCNCC2)ccc1S(=O)(=O)c1cccc(F)c1 [Example 11, N-{5-(1,4-diazepan-1-yl)-2-[(3-fluorophenyl)sulfonyl]phenyl}acetamide Hemi-tartrate] | Stable | Unstable** | – | – | – | – |
| CC(=O)Nc1cc(N2CCCNCC2)ccc1S(=O)(=O)c1cccc(F)c1.O=C(O)/C=C\C(=O)O [maleate, N-{5-(1,4-diazepan-1-yl)-2-[(3-fluorophenyl)sulfonyl]phenyl}acetamide maleate] | – | – | – | better physical stability | lower moisture absorption | – |
| N-{5-(1,4-diazepan-1-yl)-2-[(3-fluorophenyl)sulfonyl]phenyl}acetamide Hemi-malate [Example 10] | Unstable** | Stable | 1.5% | – | – | – |
| N-{5-(1,4-diazepan-1-yl)-2-[(3-fluorophenyl)sulfonyl]phenyl}acetamide Hemi-succinate [Example 7] | Unstable** | Unstable** | 5.0% | – | – | – |
